# Test results taken from patent publication US6184254A, “Methods of identifying modulators of perivascular sensory nerve Ca2+ receptors” (priority 1998, dated 2001).
# Entries after “also recorded” stand apart in the source; their conditions may differ. Where two headings read alike, the source gives them in different places. Ends that are not written are not given here.
# What was measured:
# [1] = tested on: Ca^2+-induced relaxation of mesenteric resistance arteries; experiment: Inhibition of Ca2+-induced relaxation of mesenteric resistance arteries by antagonists or denervation; design: species or system rat; settings: for Result (antagonist effect on Ca2+-induced relaxation): Table 3
# CaR = settings: cited from earlier work
# [2] = tested on: norepinephrine precontracted mesenteric resistance arteries (perivascular CaR); experiment: Vasorelaxation of norepinephrine precontracted mesenteric resistance arteries; design: species or system rat
# Text: Branch I and II mesenteric resistance arteries, internal diameter […], are isolated from the mesenteric arcade of male Wistar rats and placed in ice cold physiologic salt solution (PSS) of the following composition in mM: NaCl, 130-140; KCl, 4.7; MgSO4.7H2 O, 1.17; NaHCO3, 5-15; KH2 PO4, 1.15 and Na2 HPO4, 1.10, CaCl2, 1.0; HEPES, 50; and glucose, 5, with a pH of 7.4 when gassed with 95% air, 5% CO2.
# After cleaning of fat and connective tissue, the arterial segments are denuded of endothelium by rubbing a human hair in and out of the lumen. The vessel segments are then mounted between a force transducer and translation stage of a wire myograph using tungsten wire and the PSS is warmed to 37° C. and gassed with 95% air, 5% CO2 to provide a pH of 7.4. The vessel segments are then stretched to a length which is equivalent to an internal diameter of […] and allowed to equilibrate for 30 minutes. The vessels are then exposed to […] norepinephrine for three 5 minute periods to induce reproducible contractile responses. […] The vessel is then washed and allow to relax to baseline.
# To determine whether the test compound is a vasodilator, the vessel is again precontracted by the addition of […] norepinephrine, and after the force response reaches a steady state, the test compound is cumulatively added and the effect on force generation is determined. […] Ca^2+ receptor agonists that are found to be endothelium-independent vasodilators and whose dilator activity is blocked by quinacrine and sensory denervation are moved onto the tertiary in vivo blood pressure screen.
# (§1) Mesenteric resistance arteries were precontracted with either 100 mM K^+ (in the presence of 1 μM phentolamine) or 5 μM norepinephrine and response to cumulative addition of NPS R831 (10 nM to 50 μM) determined.
# mean arterial pressure = experiment: Mean arterial pressure of conscious SHR and WKY rats after bolus administration; type: in vivo, rat (SHR and WKY)
# Text: FIG. 12. Effect of bolus administration of 3 μmol/kg NPS R467 on mean arterial pressure (carotid artery catheter) of conscious SHR rats.
# FIG. 13. Effect of bolus administration of 1 μmol/kg NPS R831 on mean arterial pressure (carotid artery catheter) of conscious SHR and WKY.
# The initial studies assessed the effect of bolus administration of NPS R467 on mean arterial pressure of conscious rats of both strains.
# As noted, one result of the studies in Example 1 was the identification of NPS R831 as a candidate compound for assessment of blood pressure lowering effects. A study was performed in which the effect of a bolus injection of NPS R831 on blood pressure of a single SHR and a single WKY rat were measured.
# [3] = tested on: voltage sensitive Ca^2+ channel; settings: "in view of statements"; cited from earlier work
# Ca^2+ channels = target: T1, Ca^2+ channels (Rattus norvegicus, UniProt P22002); experiment: Relaxation of mesenteric arteries precontracted with 100 mM K+ (Ca2+ channel blocking activity)
# T1 construct: voltage sensitive Ca^2+ channels present on smooth muscle; from tissue; host or cells: isolated mesenteric resistance arteries (rat)
# Text: Prior studies have shown that the parathyroid CaR agonists of the NPS R467 class block voltage sensitive Ca^2+ channel at mid-micromolar concentrations. […] The rationale was based on the facts that (a) K^+ -induced contraction is the result of influx of Ca^2+ into the cell through voltage gated Ca^2+ channels, and (b) Ca^2+ -induced relaxation is not observed during K^+ depolarization. Thus, CaR agonist mediated relaxation observed during K^+ induced contraction would reflect Ca^2+ channel blocking activity while […] relaxation observed during norepinephrine-induced contraction (which results from both Ca^2+ release and Ca^2+ entry) would be a mixture of Ca^2+ receptor stimulated relaxation and Ca^2+ channel activity.
# as §1, with “determined. […] To determine that the high sensitivity component observed during norepinephrine-induced contraction is mediated by the perivascular CaR two additional studies are conducted.” for “determined.”
# rat tail arteries = settings: cited from earlier work
# [4] = tested on: mesenteric resistance arteries; experiment: Isometric force/active stress of Ca2+-depleted mesenteric resistance arteries; design: species or system Wistar rat
# Method: In the course of studies designed to examine the hypothesis that the Ca^2+ force relationship of resistance arteries is altered in genetically hypertensive rats, it was discovered that physiologic concentrations of extracellular Ca^2+ affected the repeated contraction elicited by norepinephrine in Ca^2+ -free medium.
# Mesenteric resistance arteries were isolated from Wistar rats; and intracellular Ca^2+ and isometric force were measured using a fura-based method and w ire myography (Bian, et aL, 1995b). Vessels were depleted of releasable Ca^2+ by repeated contraction with norepinephrine; and extracellular Ca^2+ was then cumulatively added back from 0.025-2.5 mmol/L in the presence of a n agonist. […] It was concluded that extracellular Ca^2+ limits force generation by depressing myofilament Ca^2+ sensitivity and decreasing intracellular Ca^2+ secondary to activation of a Ca^2+ -sensitive K^+ channel.
# [5] = bolus injection, single SHR and single WKY
# [6] = FIG. 16, 3 μM miconazole, 1 μM pentobarbital or 1 μM quinacrine, p<0.05
# T1 sequence (P22002 whole entry): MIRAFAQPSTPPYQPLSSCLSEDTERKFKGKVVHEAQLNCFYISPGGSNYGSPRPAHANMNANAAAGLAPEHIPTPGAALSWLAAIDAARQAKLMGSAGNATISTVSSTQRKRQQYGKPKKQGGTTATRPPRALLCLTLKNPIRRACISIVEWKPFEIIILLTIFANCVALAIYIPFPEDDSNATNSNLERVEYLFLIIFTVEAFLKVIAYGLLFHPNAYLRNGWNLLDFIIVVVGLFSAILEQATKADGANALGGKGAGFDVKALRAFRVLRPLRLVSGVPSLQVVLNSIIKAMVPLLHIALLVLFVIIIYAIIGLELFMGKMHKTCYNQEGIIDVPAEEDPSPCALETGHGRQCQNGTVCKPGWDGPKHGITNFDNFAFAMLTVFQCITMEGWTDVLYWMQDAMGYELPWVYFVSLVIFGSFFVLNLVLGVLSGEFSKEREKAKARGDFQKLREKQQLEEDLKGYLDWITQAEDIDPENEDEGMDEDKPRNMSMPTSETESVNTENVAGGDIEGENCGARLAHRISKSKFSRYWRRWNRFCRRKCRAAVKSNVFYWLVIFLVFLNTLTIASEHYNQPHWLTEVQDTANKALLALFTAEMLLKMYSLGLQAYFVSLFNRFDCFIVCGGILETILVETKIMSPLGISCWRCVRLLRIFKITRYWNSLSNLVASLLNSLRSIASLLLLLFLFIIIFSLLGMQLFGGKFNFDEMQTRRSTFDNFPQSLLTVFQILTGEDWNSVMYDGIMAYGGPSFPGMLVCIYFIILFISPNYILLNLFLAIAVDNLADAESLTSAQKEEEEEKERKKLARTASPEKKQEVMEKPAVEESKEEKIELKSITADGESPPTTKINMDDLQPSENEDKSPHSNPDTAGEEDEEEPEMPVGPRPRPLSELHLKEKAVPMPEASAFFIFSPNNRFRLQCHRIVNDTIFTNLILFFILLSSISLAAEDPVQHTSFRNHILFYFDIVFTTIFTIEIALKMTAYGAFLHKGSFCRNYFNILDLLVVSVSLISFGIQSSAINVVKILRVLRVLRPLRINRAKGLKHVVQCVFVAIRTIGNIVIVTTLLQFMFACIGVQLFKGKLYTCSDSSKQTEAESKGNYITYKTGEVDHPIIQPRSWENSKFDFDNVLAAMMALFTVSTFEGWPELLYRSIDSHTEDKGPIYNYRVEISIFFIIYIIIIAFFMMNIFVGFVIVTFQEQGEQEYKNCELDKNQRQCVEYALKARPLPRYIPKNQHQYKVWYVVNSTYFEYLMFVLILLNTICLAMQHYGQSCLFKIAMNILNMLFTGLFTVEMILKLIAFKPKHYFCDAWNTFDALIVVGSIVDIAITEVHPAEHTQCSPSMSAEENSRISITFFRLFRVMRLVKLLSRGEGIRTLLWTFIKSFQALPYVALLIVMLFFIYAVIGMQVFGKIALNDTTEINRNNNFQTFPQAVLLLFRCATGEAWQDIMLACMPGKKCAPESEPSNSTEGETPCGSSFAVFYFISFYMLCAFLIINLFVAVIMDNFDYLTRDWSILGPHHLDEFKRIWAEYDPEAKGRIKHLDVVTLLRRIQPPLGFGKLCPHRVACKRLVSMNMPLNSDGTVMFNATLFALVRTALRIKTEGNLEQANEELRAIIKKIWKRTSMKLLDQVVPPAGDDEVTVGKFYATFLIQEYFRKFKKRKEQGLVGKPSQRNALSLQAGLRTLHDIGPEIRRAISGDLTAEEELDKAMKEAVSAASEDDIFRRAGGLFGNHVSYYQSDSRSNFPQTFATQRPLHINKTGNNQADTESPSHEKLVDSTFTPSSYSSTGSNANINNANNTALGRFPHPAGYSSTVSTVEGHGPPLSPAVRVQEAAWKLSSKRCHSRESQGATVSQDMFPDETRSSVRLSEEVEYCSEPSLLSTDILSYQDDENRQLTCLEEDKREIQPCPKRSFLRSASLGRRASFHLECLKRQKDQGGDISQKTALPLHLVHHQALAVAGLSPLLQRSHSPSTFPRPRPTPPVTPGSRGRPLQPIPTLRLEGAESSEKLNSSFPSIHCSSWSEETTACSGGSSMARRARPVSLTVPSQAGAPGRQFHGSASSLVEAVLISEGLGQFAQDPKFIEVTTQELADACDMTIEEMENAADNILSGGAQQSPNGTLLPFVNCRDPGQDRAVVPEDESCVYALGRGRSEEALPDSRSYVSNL
# T1 sequence (P54290 25-944 partner limits assumed): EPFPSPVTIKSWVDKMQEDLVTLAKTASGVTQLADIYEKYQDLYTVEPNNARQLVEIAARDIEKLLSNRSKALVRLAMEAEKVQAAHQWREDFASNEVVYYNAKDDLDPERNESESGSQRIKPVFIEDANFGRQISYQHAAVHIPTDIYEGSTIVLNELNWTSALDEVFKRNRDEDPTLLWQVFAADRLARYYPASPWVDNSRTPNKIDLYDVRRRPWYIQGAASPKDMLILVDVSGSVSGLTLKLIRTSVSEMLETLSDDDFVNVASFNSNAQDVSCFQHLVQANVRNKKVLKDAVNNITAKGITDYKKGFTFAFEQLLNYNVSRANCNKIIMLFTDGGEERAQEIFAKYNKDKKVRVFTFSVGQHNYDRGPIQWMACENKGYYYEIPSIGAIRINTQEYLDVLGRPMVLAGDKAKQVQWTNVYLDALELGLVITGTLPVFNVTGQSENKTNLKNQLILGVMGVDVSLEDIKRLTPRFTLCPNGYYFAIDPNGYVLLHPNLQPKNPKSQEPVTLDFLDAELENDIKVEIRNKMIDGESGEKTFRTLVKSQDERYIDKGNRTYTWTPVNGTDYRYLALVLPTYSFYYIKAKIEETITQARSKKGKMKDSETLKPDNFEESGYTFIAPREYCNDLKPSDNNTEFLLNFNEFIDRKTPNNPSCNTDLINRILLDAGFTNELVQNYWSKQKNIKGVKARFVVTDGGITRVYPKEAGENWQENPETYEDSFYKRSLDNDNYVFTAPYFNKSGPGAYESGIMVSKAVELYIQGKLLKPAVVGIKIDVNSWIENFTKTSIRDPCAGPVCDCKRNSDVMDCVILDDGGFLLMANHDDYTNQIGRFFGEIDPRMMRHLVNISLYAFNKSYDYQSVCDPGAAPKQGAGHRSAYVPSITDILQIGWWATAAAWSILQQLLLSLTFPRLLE
# T1 sequence (P54290 945-1091 partner limits assumed): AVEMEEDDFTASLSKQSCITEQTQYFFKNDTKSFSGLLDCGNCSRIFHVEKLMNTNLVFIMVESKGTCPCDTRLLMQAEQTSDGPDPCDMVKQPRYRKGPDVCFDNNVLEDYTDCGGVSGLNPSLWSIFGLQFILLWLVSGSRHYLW
molecule,measurement,setting,value
"4 Cl-D-Phe^6,Leu^17 -VIP",Result (antagonist effect on Ca2+-induced relaxation),[1],no effect
"COc1ccccc1CN[C@H]1CCCN[C@H]1c1ccccc1 [CP99, 994]",Result (antagonist effect on Ca2+-induced relaxation),[1],no effect
[Gd+3] [Gd^3+],activation of CaR,CaR,activated
COC(=O)[C@@H](N)CCCNC(=N)N[N+](=O)[O-] [L-NAME],effect on Ca2+-induced relaxation,[1]; 100 μM L-NAME,inhibited/reversed
same,effect on Ca2+-induced relaxation,[1]; L-NAME pre-treatment,partially inhibited
same,Result (antagonist effect on Ca2+-induced relaxation),[1],no effect
[La+3] [La^3+],activation of CaR,CaR,activated
COc1cccc([C@@H](C)NCCCc2ccccc2)c1 [NPS R467],effect of TEA on relaxation induced by low range of the drug,"[2]; 10 mM TEA, 10's of nM drug",completely antagonized
same,effect of TEA on relaxation induced by higher concentration of the drug,"[2]; TEA, higher concentration",not blocked by TEA
same,concentration causing a larger relaxation,"[2]; biphasic relaxation, high range",3 to 10 µM
same,concentration inducing relaxation of similar extent to the Ca2+ relaxation,"[2]; biphasic relaxation, low range",50 to 300 nM
same,concentration activating the perivascular Ca2+ receptor and inducing relaxation,[2]; interpretation consistent with data,30 to 300 nM
same,time for development of blood pressure lowering effect,"mean arterial pressure; bolus, both strains",30 to 40 min
same,blood pressure lowering effect,"mean arterial pressure; bolus, conscious rats, both strains",modest and slowly developing
same,concentration of non-selective channel effects,[3],≥ 4 µM
COc1cccc([C@@H](C)NCCCc2ccccc2OC)c1 [NPS R831],potency in relaxing precontracted arteries vs activating the parathyroid CaR,[2]; compared with parathyroid CaR system,relaxes precontracted arteries with the same potency as it activates the parathyroid CaR system
same,concentration of possibly perivascular CaR mediated component,[2]; norepinephrine-induced contraction,sub-micromolar concentrations
same,shift of relaxation response during K+- vs norepinephrine-induced contraction,"Ca^2+ channels; 100 mM K+ (1 μM phentolamine) vs 5 μM norepinephrine, NPS R831 10 nM to 50 μM",significantly shifted to the right (less sensitive)
same,concentration of Ca2+ channel blocking mechanism of action,Ca^2+ channels; K+ vs norepinephrine contraction,mid-μM concentrations
same,IC50,"Ca^2+ channels; mesenteric arteries precontracted with 100 mM K+, read-out: IC50 for block of Ca2+ channels",~1500 nM
same,blood pressure lowering effect,mean arterial pressure; [5],moderately rapid (within 5 min) blood pressure lowering effect in both strains
same,onset of blood pressure lowering effect,mean arterial pressure; [5],≤ 5 min
CC(=O)NC1(c2ccccc2)CCN(CC[C@H](CN(C)C(=O)c2ccccc2)c2ccc(Cl)c(Cl)c2)CC1 [SR48968],Result (antagonist effect on Ca2+-induced relaxation),[1],no effect
CC(=O)N(C)C1(c2ccccc2)CCN(CCC[C@]2(c3ccc(Cl)c(Cl)c3)CCCN(C(=O)c3ccccc3)C2)CC1 [SR 142801],Result (antagonist effect on Ca2+-induced relaxation),[1],no effect
CC(C)Oc1cccc(CC(=O)N2CCC[C@](CC[N+]34CCC(c5ccccc5)(CC3)CC4)(c3ccc(Cl)c(Cl)c3)C2)c1 [SRI40333],Result (antagonist effect on Ca2+-induced relaxation),[1],no effect
CC[N+](CC)(CC)CC [TEA],effect on Ca2+-induced relaxation,[1],completely inhibited; also recorded: antagonized
CSCC[C@H](NC(=O)[C@H](CC(C)C)NC(=O)CNC(=O)[C@H](Cc1ccccc1)NC(=O)[C@H](Cc1ccccc1)NC(=O)[C@H](CCC(N)=O)NC(=O)[C@H](CCC(N)=O)NC(=O)[C@@H]1CCCN1C(=O)CNC(=O)[C@H](CC(C)C)NC(=O)[C@H](CC(C)C)NC(=O)[C@H](Cc1ccc(O)cc1)NC(=O)CNC(=O)[C@H](C)NC(=O)[C@H](CO)NC(=O)[C@H](CC(N)=O)NC(=O)[C@H](CC(C)C)NC(=O)[C@@H](NC(=O)[C@H](Cc1c[nH]c2ccccc12)NC(=O)CN)[C@@H](C)O)C(N)=O [galantide],Result (antagonist effect on Ca2+-induced relaxation),[1],no effect
COc1ccc2c(c1)c(CC(=O)O)c(C)n2C(=O)c1ccc(Cl)cc1 [indomethacin],Result (antagonist effect on Ca2+-induced relaxation),[1]; at 1.5 mM Ca2+,partial effect
Clc1ccc(COC(Cn2ccnc2)c2ccc(Cl)cc2Cl)c(Cl)c1 (centres unmarked) [miconazole],effect on Ca2+-induced relaxation,[1]; 5 mM Ca2+,significantly attenuated
same,effect on Ca2+-induced relaxation,[1]; Ca2+ 1.5-3 mM,completely antagonized
same,effect on Ca2+-induced relaxation,[1]; [6],significantly attenuated
Oc1ccc2c3c1O[C@H]1c4[nH]c5c(c4C[C@@]4(O)[C@@H](C2)N(CC2CC2)CC[C@]314)C[C@@]1(O)[C@H]2Cc3ccc(O)c4c3[C@@]1(CCN2CC1CC1)[C@H]5O4 [nor-binaltorphmine],Result (antagonist effect on Ca2+-induced relaxation),[1],no effect
C[C@@H]1O[C@@H](O[C@H]2C[C@@H](O)[C@]3(CO)[C@H]4[C@H](O)C[C@]5(C)[C@@H](C6=CC(=O)OC6)CC[C@]5(O)[C@@H]4CC[C@]3(O)C2)[C@H](O)[C@H](O)[C@H]1O [ouabain],effect of pre-treatment on Ca2+-induced relaxation of rat tail arteries,rat tail arteries,antagonized
CCCC(C)C1(CC)C(=O)NC(=O)NC1=O (centres unmarked) [pentobarbital],effect on Ca2+-induced relaxation,[1],significantly attenuated
same,effect on Ca2+-induced relaxation,[1]; 5 mM Ca2+,significantly attenuated
same,effect on Ca2+-induced relaxation,[1]; Ca2+ 1.5-3 mM,completely antagonized
Oc1ccccc1 [phenol],effect on Ca2+-induced relaxation,[1],completely blocks and often reverses; also recorded: significantly inhibited; also recorded: completely inhibits
CCN(CC)CCCC(C)Nc1c2ccc(Cl)cc2nc2ccc(OC)cc12 (centres unmarked) [quinacrine],effect on Ca2+-induced relaxation,[1]; [6],significantly attenuated
same,effect on Ca2+-induced relaxation,[1]; PLA2 blockade,significantly attenuates
NCCCNCCCCNCCCN [spermine],activation of CaR,CaR,activated
CN1[C@@H]2CC[C@H]1C[C@@H](O)C2 [tropine],Result (antagonist effect on Ca2+-induced relaxation),[1],no effect
"CGRP (8-37): CGRP antagonist (VTHRLAGLLSRSGGVVKNNFVPTNVGSKAF; ends and bridges not checked; UniProt P06881 90-119, looked up, fragment)",Result (antagonist effect on Ca2+-induced relaxation),[1],no effect
charybdotoxin,effect on Ca2+-induced relaxation,"[1]; prior results, K / KCa channel blockade",antagonized
same,effect on decrease in active stress induced by 1.6 and 2.5 mmol/L extracellular Ca2+,[4],inhibited
neomycin,activation of CaR,CaR,activated
spantide II,Result (antagonist effect on Ca2+-induced relaxation),[1],no effect
tin protoporphorin IX,Result (antagonist effect on Ca2+-induced relaxation),[1],no effect
